Measurements: patent publication US8912198B2, “Compounds useful as inhibitors of ATR kinase” (Vertex Pharmaceuticals Incorporated, priority 2012, dated 2014)

Tests used:
[1] = system: HCT116 colorectal cancer cells; assay: Single agent HCT116 activity, 96 h cell viability (MTS) assay; assay type: cell-based; details: Homo sapiens, HCT-116; 96 h MTS cell viability, compound alone; read-out: Single agent HT116 IC50
Experimental: Compounds can be screened for single agent activity against HCT116 colorectal cancer cells using a 96 h cell viability (MTS) assay. HCT116 are plated at 470 cells per well in 96-well polystyrene plates (Costar 3596) in 150 μl of McCoy's 5A media (Sigma M8403) supplemented with 10% foetal bovine serum (JRH Biosciences 12003), Penicillin/Streptomycin solution diluted 1:100 (Sigma P7539), and 2 mM L-glumtamine (Sigma G7513), and allowed to adhere overnight at 37° C. in 5% CO2. Compounds are then added to the cell media in 2-fold serial dilutions from a top final concentration of 10 μM as a full matrix of concentrations in a final cell volume of 200 μl, and the cells are then incubated at 37° C. in 5% CO2. After 96 h, 40 μl of MTS reagent (Promega G358a) is added to each well and the cells are incubated for lh at 37° C. in 5% CO2. Finally, absorbance is measured at 490 nm using a SpectraMax Plus 384 reader (Molecular Devices) and IC50 values can be calculated.

[2] = system: HCT116 colorectal cancer cells; assay: Cisplatin sensitization assay, 96 h cell viability (MTS); assay type: cell-based; details: concentration of compound required to reduce the IC50 of Cisplatin alone by at least 3-fold; HCT116, 96 h MTS
Experimental: Compounds can be screened for their ability to sensitize HCT116 colorectal cancer cells to Cisplatin using a 96 h cell viability (MTS) assay. […] Compounds and Cisplatin are then both added simultaneously to the cell media in 2-fold serial dilutions from a top final concentration of 10 μM as a full matrix of concentrations in a final cell volume of 200 μl and the cells are then incubated at 37° C. in 5% CO2. After 96 h, 40 μl of MTS reagent (Promega G358a) is added to each well and the cells are incubated for lh at 37° C. in 5% CO2. Finally, absorbance is measured at 490 nm using a SpectraMax Plus 384 reader (Molecular Devices) and the concentration of compound required to reduce the IC50 of Cisplatin alone by at least 3-fold (to 1 decimal place) can be reported.

intracellular ATR = biological target: T1, intracellular ATR (Homo sapiens, UniProt Q13535); assay: Cellular ATR inhibition assay, H2AX phosphorylation in hydroxyurea treated HT29 cells; assay type: cell-based; details: 2 mM hydroxyurea, phosphorylated H2AX Ser139 positive nuclei
T1 construct: endogenous in cells; host or cells: HT29
Experimental: Compounds can be screened for their ability to inhibit intracellular ATR using an immunofluorescence microscopy assay to detect phosphorylation of the ATR substrate histone H2AX in hydroxyurea treated cells. HT29 cells are plated at 14,000 cells per well in 96-well black imaging plates (BD 353219) in McCoy's 5A media (Sigma M8403) supplemented with 10% foetal bovine serum (JRH Biosciences 12003), Penicillin/Streptomycin solution diluted 1:100 (Sigma P7539), and 2 mM L-glumtamine (Sigma G7513), and allowed to adhere overnight at 37° C. in 5% CO2. Compounds are then added to the cell media from a final concentration of 25 μM in 3-fold serial dilutions and the cells are incubated at 37° C. in 5% CO2. After 15 min, hydroxyurea (Sigma H8627) is added to a final concentration of 2 mM.
After 45 min of treatment with hydroxyurea, the cells are washed in PBS, fixed for 10 min in 4% formaldehyde diluted in PBS (Polysciences Inc 18814), washed in 0.2% Tween-20 in PBS (wash buffer), and permeabilised for 10min in 0.5% Triton X-100 in PBS, all at room temperature. The cells are then washed once in wash buffer and blocked for 30 min at room temperature in 10% goat serum (Sigma G9023) diluted in wash buffer (block buffer). To detect H2AX phosphorylation levels, the cells are then incubated for 1 h at room temperature in primary antibody (mouse monoclonal anti-phosphorylated histone H2AX Ser139 antibody; Upstate 05-636) diluted 1:250 in block buffer. The cells are then washed five times in wash buffer before incubation for lh at room temperature in the dark in a mixture of secondary antibody (goat anti-mouse Alexa Fluor 488 conjugated antibody; Invitrogen A11029) and Hoechst stain (Invitrogen H3570); diluted 1:500 and 1:5000, respectively, in wash buffer. The cells are then washed five times in wash buffer and finally 100 ul PBS is added to each well before imaging.
Cells are imaged for Alexa Fluor 488 and Hoechst intensity using the BD Pathway 855 Bioimager and Attovision software (BD Biosciences, Version 1.6/855) to quantify phosphorylated H2AX Ser139 and DNA staining, respectively. The percentage of phosphorylated H2AX-positive nuclei in a montage of 9 images at 20× magnification is then calculated for each well using BD Image Data Explorer software (BD Biosciences Version 2.2.15). Phosphorylated H2AX-positive nuclei are defined as Hoechst-positive regions of interest containing Alexa Fluor 488 intensity at 1.75-fold the average Alexa Fluor 488 intensity in cells not treated with hydroxyurea. The percentage of H2AX positive nuclei is finally plotted against concentration for each compound and IC50s for intracellular ATR inhibition are determined using Prism software (GraphPad Prism version 3.0cx for Macintosh, GraphPad Software, San Diego Calif., USA).

full-length ATR = biological target: T2, full-length ATR (Homo sapiens, UniProt Q13535); assay: ATR inhibition assay, radioactive-phosphate incorporation; assay type: biochemical; details: Ki(app); 5 nM full-length ATR, 10 μM ATP, 800 μM target peptide, 25° C.
T2 construct: Assays were carried out at 25° C. in the presence of 5 nM full-length ATR
Experimental: Compounds were screened for their ability to inhibit ATR kinase using a radioactive-phosphate incorporation assay. Assays were carried out in a mixture of 50 mM Tris/HCl (pH 7.5), 10 mM MgCl2 and 1 mM DTT. Final substrate concentrations were 10 μM [γ-33P]ATP (3 mCi 33P ATP/mmol ATP, Perkin Elmer) and 800 μM target peptide (ASELPASQPQPFSAKKK (SEQ. ID NO: 1)).
Assays were carried out at 25° C. in the presence of 5 nM full-length ATR. An assay stock buffer solution was prepared containing all of the reagents listed above, with the exception of ATP and the test compound of interest. 13.5 μL of the stock solution was placed in a 96 well plate followed by addition of 2 μL of DMSO stock containing serial dilutions of the test compound (typically starting from a final concentration of 15 μM 3-fold serial dilutions) in duplicate (final DMSO concentration 7%). The plate was pre-incubated for 10 minutes at 25° C. and the reaction initiated by addition of 15 μL [γ-33P]ATP (final concentration 10 μM).
The reaction was stopped after […] by the addition of 30 μL 0.1M phosphoric acid containing 2 mM ATP. A multiscreen phosphocellulose filter 96-well plate (Millipore, Cat no. MAPHN0B50) was pretreated with 100 μL 0.2M phosphoric acid prior to the addition of 45 μL of the stopped assay mixture. The plate was washed with 5×200 μL 0.2M phosphoric acid. After drying, 100 μL Optiphase ‘SuperMix’ liquid scintillation cocktail (Perkin Elmer) was added to the well prior to scintillation counting (1450 Microbeta Liquid Scintillation Counter, Wallac).
After removing mean background values for all of the data points, Ki(app) data were calculated from non-linear regression analysis of the initial rate data using the Prism software package (GraphPad Prism version 3.0cx for Macintosh, GraphPad Software, San Diego, Calif., USA).

T1 sequence (Q13535 whole entry): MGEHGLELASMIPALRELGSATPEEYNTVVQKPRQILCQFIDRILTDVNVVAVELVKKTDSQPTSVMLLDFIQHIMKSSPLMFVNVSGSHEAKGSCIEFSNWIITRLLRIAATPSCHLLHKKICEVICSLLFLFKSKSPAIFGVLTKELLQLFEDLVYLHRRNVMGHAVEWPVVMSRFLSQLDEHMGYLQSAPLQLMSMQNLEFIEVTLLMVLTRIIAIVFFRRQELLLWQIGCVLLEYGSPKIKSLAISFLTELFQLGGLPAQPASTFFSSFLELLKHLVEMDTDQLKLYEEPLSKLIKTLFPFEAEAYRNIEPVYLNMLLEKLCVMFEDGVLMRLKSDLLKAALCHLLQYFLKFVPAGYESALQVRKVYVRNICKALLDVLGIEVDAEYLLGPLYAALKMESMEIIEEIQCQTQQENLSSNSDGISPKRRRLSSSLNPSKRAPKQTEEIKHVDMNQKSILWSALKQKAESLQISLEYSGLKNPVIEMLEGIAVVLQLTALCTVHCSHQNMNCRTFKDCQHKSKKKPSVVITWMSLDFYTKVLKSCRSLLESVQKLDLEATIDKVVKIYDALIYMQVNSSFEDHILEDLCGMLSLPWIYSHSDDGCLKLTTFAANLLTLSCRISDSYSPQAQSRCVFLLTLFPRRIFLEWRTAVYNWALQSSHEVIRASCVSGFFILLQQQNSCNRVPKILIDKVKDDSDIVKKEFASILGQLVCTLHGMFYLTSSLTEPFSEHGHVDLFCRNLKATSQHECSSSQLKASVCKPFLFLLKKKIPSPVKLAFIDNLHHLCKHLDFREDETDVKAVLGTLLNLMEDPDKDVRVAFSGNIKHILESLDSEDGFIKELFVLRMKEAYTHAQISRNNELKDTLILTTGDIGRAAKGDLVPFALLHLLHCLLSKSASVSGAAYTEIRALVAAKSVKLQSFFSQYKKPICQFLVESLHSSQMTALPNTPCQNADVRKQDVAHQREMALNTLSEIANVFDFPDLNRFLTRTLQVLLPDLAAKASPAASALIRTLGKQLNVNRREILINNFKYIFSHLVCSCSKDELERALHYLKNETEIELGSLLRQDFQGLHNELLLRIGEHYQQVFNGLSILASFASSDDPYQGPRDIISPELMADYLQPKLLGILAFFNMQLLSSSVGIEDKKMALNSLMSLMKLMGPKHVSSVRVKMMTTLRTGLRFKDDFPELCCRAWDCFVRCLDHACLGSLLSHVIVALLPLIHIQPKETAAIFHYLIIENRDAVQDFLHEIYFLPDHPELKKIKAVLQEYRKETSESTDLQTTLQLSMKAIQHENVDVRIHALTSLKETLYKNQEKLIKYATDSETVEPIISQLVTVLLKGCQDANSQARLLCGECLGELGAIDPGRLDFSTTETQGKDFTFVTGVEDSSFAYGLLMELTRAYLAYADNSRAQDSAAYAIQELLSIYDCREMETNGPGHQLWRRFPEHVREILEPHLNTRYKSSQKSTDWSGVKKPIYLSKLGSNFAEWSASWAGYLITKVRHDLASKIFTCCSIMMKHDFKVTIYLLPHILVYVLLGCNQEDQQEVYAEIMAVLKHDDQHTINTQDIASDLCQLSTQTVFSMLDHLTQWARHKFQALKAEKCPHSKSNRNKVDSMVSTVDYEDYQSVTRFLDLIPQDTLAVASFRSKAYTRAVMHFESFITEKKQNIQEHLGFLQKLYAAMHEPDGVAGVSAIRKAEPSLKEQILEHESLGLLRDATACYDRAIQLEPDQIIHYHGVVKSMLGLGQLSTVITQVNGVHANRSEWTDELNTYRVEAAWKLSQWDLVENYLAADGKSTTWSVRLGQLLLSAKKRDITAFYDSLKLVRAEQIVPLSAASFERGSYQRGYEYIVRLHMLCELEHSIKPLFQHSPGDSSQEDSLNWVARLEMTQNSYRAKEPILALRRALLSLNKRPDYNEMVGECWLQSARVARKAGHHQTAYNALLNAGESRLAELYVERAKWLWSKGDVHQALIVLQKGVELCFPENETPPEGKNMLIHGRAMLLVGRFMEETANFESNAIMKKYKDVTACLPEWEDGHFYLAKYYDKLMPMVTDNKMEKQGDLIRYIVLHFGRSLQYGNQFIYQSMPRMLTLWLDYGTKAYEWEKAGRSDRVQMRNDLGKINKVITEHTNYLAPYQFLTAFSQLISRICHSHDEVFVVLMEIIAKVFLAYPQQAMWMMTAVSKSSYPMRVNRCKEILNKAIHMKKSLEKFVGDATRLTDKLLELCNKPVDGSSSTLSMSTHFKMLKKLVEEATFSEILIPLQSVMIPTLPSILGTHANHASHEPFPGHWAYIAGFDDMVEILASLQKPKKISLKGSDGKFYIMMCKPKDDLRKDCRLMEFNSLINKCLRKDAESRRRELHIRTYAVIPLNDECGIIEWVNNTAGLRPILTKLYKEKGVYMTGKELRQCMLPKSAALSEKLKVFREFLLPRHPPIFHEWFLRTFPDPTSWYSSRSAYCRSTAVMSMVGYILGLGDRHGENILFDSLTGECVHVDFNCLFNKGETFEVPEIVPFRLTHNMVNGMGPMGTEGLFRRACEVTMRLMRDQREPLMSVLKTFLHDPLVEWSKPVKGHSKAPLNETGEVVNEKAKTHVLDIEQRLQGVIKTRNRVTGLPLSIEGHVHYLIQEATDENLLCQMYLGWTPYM
T1 sequence (Q8WXE1 whole entry partner): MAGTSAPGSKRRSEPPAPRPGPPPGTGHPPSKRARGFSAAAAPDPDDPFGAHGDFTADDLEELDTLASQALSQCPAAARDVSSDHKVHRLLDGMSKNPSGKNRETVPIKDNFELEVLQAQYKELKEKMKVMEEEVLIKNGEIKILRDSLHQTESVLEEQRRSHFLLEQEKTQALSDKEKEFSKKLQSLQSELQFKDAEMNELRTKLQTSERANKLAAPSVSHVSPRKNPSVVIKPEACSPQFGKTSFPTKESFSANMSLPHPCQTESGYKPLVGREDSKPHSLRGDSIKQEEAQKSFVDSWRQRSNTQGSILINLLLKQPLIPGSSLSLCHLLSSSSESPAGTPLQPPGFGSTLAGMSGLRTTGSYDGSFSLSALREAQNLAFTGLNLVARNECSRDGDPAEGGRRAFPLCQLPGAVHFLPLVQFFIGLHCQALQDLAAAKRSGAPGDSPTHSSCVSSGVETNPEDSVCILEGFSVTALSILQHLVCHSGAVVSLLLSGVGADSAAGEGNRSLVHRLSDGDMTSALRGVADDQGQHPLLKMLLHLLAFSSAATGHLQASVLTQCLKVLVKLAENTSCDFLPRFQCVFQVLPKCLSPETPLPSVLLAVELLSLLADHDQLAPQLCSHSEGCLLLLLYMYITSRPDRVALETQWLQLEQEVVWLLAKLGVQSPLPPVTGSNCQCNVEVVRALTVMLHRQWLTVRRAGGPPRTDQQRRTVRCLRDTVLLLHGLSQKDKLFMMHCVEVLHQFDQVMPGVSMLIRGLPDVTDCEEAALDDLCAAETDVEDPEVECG
T2 sequence (Q13535 whole entry): as the sequence (Q13535 whole entry) above

| Compound | IC50 [1] [nM] | Cisplatin sensitization [2] [nM] | IC50 (intracellular ATR) [nM] | Ki (full-length ATR) [nM] |
| --- | --- | --- | --- | --- |
| CC(C)S(=O)(=O)c1ccc(-c2cnc(N)c(-c3cc(-c4ccc(NC[C@H]5CCCN5)cc4)no3)n2)cc1 [Compound I-4, (R)-5-(4-(isopropylsulfonyl)phenyl)-3-(3-(4-((pyrrolidin-2-ylmethyl)amino)phenyl)isoxazol-5-yl)pyrazin-2-amine] | 52 | 39 | 13 | 0.35 |
| CC(C)S(=O)(=O)c1ccc(-c2cnc(N)c(-c3cc(-c4ccc(NCC5CCCN5)cc4)no3)n2)cc1 (stereo not drawn) [Compound I-5, 5-(4-isopropylsulfonylphenyl)-3-[3-[4-(pyrrolidin-2-ylmethylamino)phenyl]isoxazol-5-yl]pyrazin-2-amine] | 26 | 20 | < 10 | < 0.1 |
| CC(C)S(=O)(=O)c1ccc(-c2cnc(N)c(-c3cc(-c4ccc(NCCN(C)C)cc4)no3)n2)cc1 [Compound I-6, N-(4-(5-(3-amino-6-(4-(isopropylsulfonyl)phenyl)pyrazin-2-yl)isoxazol-3-yl)phenyl)-N,N-dimethylethane-1,2-diamine] | 720 | 78 | 260 | 0.405 |
| CC(C)S(=O)(=O)c1ccc(-c2cnc(N)c(-c3cc(-c4ccc(NCC5CCN5)cc4)no3)n2)cc1 (stereo not drawn) [Compound I-2, 3-[3-[4-(azetidin-2-ylmethylamino)phenyl]isoxazol-5-yl]-5-(4-isopropylsulfonylphenyl)pyrazin-2-amine] | 140 | 78 | 40 | 0.6 |
| CC(C)S(=O)(=O)c1ccc(-c2cnc(N)c(-c3cc(-c4ccc(NCC5CCCCN5)cc4)no3)n2)cc1 (stereo not drawn) [Compound I-1, 5-(4-isopropylsulfonylphenyl)-3-[3-[4-(2-piperidylmethylamino)phenyl]isoxazol-5-yl]pyrazin-2-amine] | 210 | 156 | 62 | 0.635 |
| CC(C)S(=O)(=O)c1ccc(-c2cnc(N)c(-c3cc(-c4ccc(NC[C@@H]5CCCN5)cc4)no3)n2)cc1 [Compound I-3, (S)-5-(4-(isopropylsulfonyl)phenyl)-3-(3-(4-((pyrrolidin-2-ylmethyl)amino)phenyl)isoxazol-5-yl)pyrazin-2-amine] | 83 | 20 | 14 | 0.49 |
